Results from article PMC3288074, “Structural and Functional Analysis of Validoxylamine A 7′-phosphate Synthase ValL Involved in Validamycin A Biosynthesis” (PLoS ONE, 2012).

T1: ValL (Streptomyces hygroscopicus, UniProt H2K885)
T1 construct: dimer; selenomethionine-labelled for the 3T7D data set
T1 sequence (H2K885 1-497): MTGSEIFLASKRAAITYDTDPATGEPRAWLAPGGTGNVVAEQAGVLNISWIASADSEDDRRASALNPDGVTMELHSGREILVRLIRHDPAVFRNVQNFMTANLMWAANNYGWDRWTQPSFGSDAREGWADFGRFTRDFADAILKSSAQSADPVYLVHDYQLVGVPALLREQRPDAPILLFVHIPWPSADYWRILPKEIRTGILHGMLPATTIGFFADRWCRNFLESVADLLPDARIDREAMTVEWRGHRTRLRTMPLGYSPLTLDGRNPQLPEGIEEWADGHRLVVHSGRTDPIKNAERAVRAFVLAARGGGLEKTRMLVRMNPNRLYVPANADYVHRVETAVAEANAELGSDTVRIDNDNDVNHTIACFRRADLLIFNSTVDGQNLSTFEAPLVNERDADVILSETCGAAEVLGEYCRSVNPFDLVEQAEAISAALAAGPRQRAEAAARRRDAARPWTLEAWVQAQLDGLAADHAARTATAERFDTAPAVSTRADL


How the values were obtained:
ValL = molecular target: T1, ValL; assay: X-ray crystallography (co-crystal, […] Å); assay type: binding; settings: product analog; active site between N- and C-terminal domains; 5 mM trehalose incubated, 30% trehalose in cryoprotectant; pH 8.5, MgCl2; SeMet protein
[1] = molecular target: the molecule itself; assay: dynamic scattering; in solution; data not shown; conditions not given

Molecule | X-ray crystallography (co-crystal, 1.7 Å) (ValL) | stoichiometry N [1]
OC[C@H]1O[C@H](O[C@H]2O[C@H](CO)[C@@H](O)[C@H](O)[C@H]2O)[C@H](O)[C@@H](O)[C@@H]1O [trehalose] | The co-crystallization of ValL/trehalose led to the determination of ValL/trehalose complex structure. | –
Validoxylamine A 7'-phosphate synthase ValL (enzyme, ValL, validoxylamine A 7'-phosphate synthase of the validamycin A gene cluster of Streptomyces hygroscopicus var. jinggangensis 5008; the encoded protein has 497 aa; gene valL cloned into pET28a between EcoRI and BamHI sites; Removal of the tag is not mentioned; The ValL/trehalose structure (3T7D) was obtained from selenomethionine-labelled ValL; the apo structure (3T5T) from native ValL; also …) TGSEIFLASKRAAITYDTDPATGEPRAWLAPGGTGNVVAEQAGVLNISWIASADSEDDRRASALNPDGVTMELHSGREILVRLIRHDPAVFRNVQNFMTANLMWAANNYGWDRWTQPSFGSDAREGWADFGRFTRDFADAILKSSAQSADPVYLVHDYQLVGVPALLREQRPDAPILLFVHIPWPSADYWRILPKEIRTGILHGMLPATTIGFFADRWCRNFLESVADLLPDARIDREAMTVEWRGHRTRLRTMPLGYSPLTLDGRNPQLPEGIEEWADGHRLVVHSGRTDPIKNAERAVRAFVLAARGGGLEKTRMLVRMNPNRLYVPANADYVHRVETAVAEANAELGSDTVRIDNDNDVNHTIACFRRADLLIFNSTVDGQNLSTFEAPLVNERDADVILSETCGAAEVLGEYCRSVNPFDLVEQAEAISAALAAGPRQRAEAAARRRDAARPWTLEAWVQAQLDGLAADHAARTATAERFDTAPAVSTRADL | – | 2
